Experimental data: US11345761B2, “Esterified selenium polysaccharide and preparation method and use therefor” (AI-MAY ZHONG KE SELENIUM TECHNOLOGY (TIANJIN) CO., LTD, priority 2018, dated 2022)

What was measured:
[1] = system: superoxide dismutase (SOD); assay: Serum SOD activity after feeding chicks; assay type: in vivo; details: 5 micrograms of selenium/day
Method: (§1) Chicks, which were used as a model, were fed with the esterified selenium polysaccharide of the present invention continuously at a dose of 5 micrograms of selenium/day after birth. A polysaccharide without the esterified selenium was used as a control. On days 7, 14, 21, and 28 after feeding, the assay of the activity of glutathione peroxidase (GSH-Px) and superoxide dismutase (SOD) was performed (using commercially available kits EnzyChrom™ Glutahione Peroxidase Assay Kit and MIBio Mouse superoxide dismutase (SOD) kit for completion of the assay).

IL-4 = IL-4 expression in B-6 splenocytes, flow cytometry; assay type: cell-based; details: 2 to 5 micrograms selenium/mL, 48 hours, compared with 1,3-glucose hexasaccharide
Method: (§2) B-6 splenocytes were used as the experimental model. Carrageenan, chitohexaose, 1,3-glucose hexasaccharide, PMA+innomycin were used as controls and incubated in the culture medium containing the esterified selenium polysaccharide of the present invention (2 to 5 micrograms selenium/mL) for 48 hours to detect the expression of IL-4 and IFN-γ thereof.
(§3) In the Example, the culture medium for culturing B-6 spleen cells is the culture medium for culturing B-6 spleen cells conventionally in the art, and contains essential and non-essential amino acids, vitamins, glucose, hormones, growth factors, trace minerals and low-concentration fetal bovine serum (2%) and 5 mi penicillin/streptomycin solution. The buffer system of the medium is phosphate buffered saline solution PBS, and the pH value is 7.4 after equilibrating in a cell incubator containing 5% CO2.
(§4) After the cells were harvested, they were stained with BD Bioscience's Cytofix/Cytoperm kit and detected by flow cytometry.

IFN-γ = IFN-γ expression in B-6 splenocytes, flow cytometry; assay type: cell-based; details: 2 to 5 micrograms selenium/mL, 48 hours, compared with 1,3-glucose hexasaccharide
Method: as §2, §3, §4

[2] = system: glutathione peroxidase (GSH-Px); assay: Serum GSH-Px activity after feeding chicks; assay type: in vivo; details: 5 micrograms of selenium/day
Method: as §1

[3] = Blood detection after feeding mice; assay type: in vivo; set-up: red blood cell: unit not given here
Source text: Mice, which were used as a model, were fed with the esterified selenium polysaccharide prepared by the present invention continuously at a selenium dose of 2 to 5 micrograms of selenium/day for 2 weeks. A polysaccharide without the esterified selenium was used as a control. […] The above-mentioned detection data became stable starting from week 5.

[4] = fed 2 to 5 micrograms of selenium/day, week 3 to week 6

Substance: esterified selenium polysaccharide
- Serum SOD ([1]; Day 1): 180 U/mg
- Serum SOD ([1]; Day 7): 191 U/mg
- Serum SOD ([1]; Day 14): 195 U/mg
- Serum SOD ([1]; Day 21): 190 U/mg
- Serum SOD ([1]; Day 28): 187 U/mg
- increase of SOD at maximum ([1]; maximum on days 7-14): 12%
- increase of maximum expression of IL-4 (IL-4): 60%
- increase of maximum expression of IFN-γ (IFN-γ): 36%
- Serum GSH-Px ([2]; Day 1): 1869 U/mg
- Serum GSH-Px ([2]; Day 7): 1879 U/mg
- Serum GSH-Px ([2]; Day 14): 1975 U/mg
- Serum GSH-Px ([2]; Day 21): 2150 U/mg
- Serum GSH-Px ([2]; Day 28): 2090 U/mg
- increase of chick GHS-Px activity at maximum ([2]; maximum on days 14-21): 15%
- Selenium content in serum ([3]; Week 1, 2 μg/day selenium): 0.4 µg/L
- red blood cell ([3]; Week 1, 2 μg/day selenium): 9.58 ×10^6
- white blood cell ([3]; Week 1, 2 μg/day selenium): 7260 mL⁻¹
- Selenium content in serum ([3]; Week 1, 5 μg/day selenium): 0.7 µg/L
- red blood cell ([3]; Week 1, 5 μg/day selenium): 9.66 ×10^6
- white blood cell ([3]; Week 1, 5 μg/day selenium): 7290 mL⁻¹
- Selenium content in serum ([3]; Week 3, 2 μg/day selenium): 2.9 µg/L
- red blood cell ([3]; Week 3, 2 μg/day selenium): 9.75 ×10^6
- white blood cell ([3]; Week 3, 2 μg/day selenium): 7360 mL⁻¹
- Selenium content in serum ([3]; Week 3, 5 μg/day selenium): 4.5 µg/L
- red blood cell ([3]; Week 3, 5 μg/day selenium): 9.97 ×10^6
- white blood cell ([3]; Week 3, 5 μg/day selenium): 7570 mL⁻¹
- Selenium content in serum ([3]; Week 4, 2 μg/day selenium): 6.1 µg/L
- red blood cell ([3]; Week 4, 2 μg/day selenium): 10.5 ×10^6
- white blood cell ([3]; Week 4, 2 μg/day selenium): 7590 mL⁻¹
- Selenium content in serum ([3]; Week 4, 5 μg/day selenium): 6.8 µg/L
- red blood cell ([3]; Week 4, 5 μg/day selenium): 10.5 ×10^6
- white blood cell ([3]; Week 4, 5 μg/day selenium): 7910 mL⁻¹
- Selenium content in serum ([3]; Week 5, 2 μg/day selenium): 6.9 µg/L
- red blood cell ([3]; Week 5, 2 μg/day selenium): 11.1 ×10^6
- white blood cell ([3]; Week 5, 2 μg/day selenium): 7960 mL⁻¹
- Selenium content in serum ([3]; Week 5, 5 μg/day selenium): 7.3 µg/L
- red blood cell ([3]; Week 5, 5 μg/day selenium): 11.4 ×10^6
- white blood cell ([3]; Week 5, 5 μg/day selenium): 7990 mL⁻¹
- Selenium content in serum ([3]; Week 6, 2 μg/day selenium): 7.0 µg/L
- red blood cell ([3]; Week 6, 2 μg/day selenium): 11.2 ×10^6
- white blood cell ([3]; Week 6, 2 μg/day selenium): 7960 mL⁻¹
- Selenium content in serum ([3]; Week 6, 5 μg/day selenium): 7.3 µg/L
- red blood cell ([3]; Week 6, 5 μg/day selenium): 11.5 ×10^6
- white blood cell ([3]; Week 6, 5 μg/day selenium): 7990 mL⁻¹
- increase of red blood cells [3, 4]: 20%
- increase of selenium content in serum [3, 4]: more than 30%
- increase of white blood cells [3, 4]: 10%
